The values that follow come from patent US20220162215A1, “COMPOSITIONS AND METHODS OF USING THE SAME FOR TREATMENT OF NEURODEGENERATIVE AND MITOCHONDRIAL DISEASE” (MITOKININ, INC., priority 2019, published 2022).

Read-outs that look alike come from different tables or passages of the source. Some results are limits rather than exact numbers.

Series [1] relates to HeLa MKYP cells. Description: Toxicity / cell death measured by DAPI staining (take-up). The settings on record: 50 μM; for Toxicity (% positive for DAPI take-up at 50 μM)*: Table 3 Supplement A. In kind it is cell-based. The method, then:
H2O2 treatment was performed as a control for cell death as measured by DAPI staining.
Briefly, HeLa MKYP cells were plated at 10,000 cells/well in 96 well plates along with compounds at various concentrations. Following 16 hrs of incubation, cells were treated with 1 uM FCCP/oligomycin for 6 hours, then analyzed via FACS for the presence of mitochondria in lysosomes (as determined by an emissions spectrum shift from the pH-sensitive mtKeima tag).

Series [2] relates to HeLa MKYP cells. In words: Human mitophagy assay (HeLa MKYP, mtKeima FACS, FCCP/oligomycin). Format: cell-based. The settings on record: Homo sapiens, HeLa; for activation at 6.3 µM: 6 h, % activation of mitophagy at 6.3 μM treatment of the compound, read-out: Potency at 1 μM F/O toxin*. The method, then: Briefly, HeLa MKYP cells were plated at 10,000 cells/well in 96 well plates along with compounds at various concentrations. Following 16 hrs of incubation, cells were treated with 1 uM FCCP/oligomycin for 6 hours, then analyzed via FACS for the presence of mitochondria in lysosomes (as determined by an emissions spectrum shift from the pH-sensitive mtKeima tag). Examples are shown in FIG. 1 through FIG. 13 below.

The mark [3] stands for this setting: Table 3, read-out: Potency at 1 μM F/O toxin* (EC50 of mitophagy activation).
Where [4] appears, read: Table 3 Supplement A, as measured in Table 3, read-out: Potency (EC50 Max Mitophagy) (μM)*.

On to `Fc1cc(Cl)cc(CNc2ncnc3[nH]c(C(F)(F)F)cc23)c1` [Compound 24], for which the “Toxicity (% positive for DAPI takeup @ 50 μM)” value with HeLa MKYP cells [1] (Table 3) stood at 4.8%. The activation at 6.3 µM in the series on HeLa MKYP cells [2] (Table 3) was 51.2%.

Take `FC(F)(F)c1cc2c(NCc3cccc(Cl)c3)ncnc2[nH]1` [Compound 25]: the “Toxicity (% positive for DAPI takeup @ 50 μM)” value with HeLa MKYP cells [1] (Table 3) is 20.3%. Also, in the series with HeLa MKYP cells [2] (Table 3), the activation at 6.3 µM turned out to be 49.9%.

`CC(C)[C@@H](Nc1ncnc2[nH]c(C(F)(F)F)cc12)c1cncnc1` [Compound 26]: the “Toxicity (% positive for DAPI takeup @ 50 μM)” value with HeLa MKYP cells [1] (Table 3) came out at 6.8%. In addition, the “Toxicity (% positive for DAPI take-up at 50 μM)*” value in the series on HeLa MKYP cells [1] is 6.82%. Besides, the EC50 in the series on HeLa MKYP cells [2] (setting [3]) came to 6.9 µM; in the series with HeLa MKYP cells [2] (setting [4]), 6.85 µM.

Turning to `CCCCNc1ncnc2[nH]c(C3CC3)nc12` [Compound 29], the “Toxicity (% positive for DAPI takeup @ 50 μM)” value in the series on HeLa MKYP cells [1] (Table 3) is on record as 16.2%. Also, the EC50 in the series on HeLa MKYP cells [2] (setting [3]) amounted to 18.8 µM.

Regarding `c1coc(CNc2ncnc3[nH]c(C4CCC4)nc23)c1` [Compound 30], in the series on HeLa MKYP cells [1] (Table 3), the “Toxicity (% positive for DAPI takeup @ 50 μM)” value is listed as 3.0%. In addition, in the series on HeLa MKYP cells [2] (setting [3]), the EC50 was > 50 µM.

For `CCCCNc1ncnc2[nH]c(C3CCC3)nc12` [Compound 31], in the series on HeLa MKYP cells [1] (Table 3), the “Toxicity (% positive for DAPI takeup @ 50 μM)” value is listed as 6.1%. Besides, the EC50 in the series on HeLa MKYP cells [2] (setting [3]) is > 50 µM.

As for `FC(F)(F)c1cc2c(NC3CCCc4ccccc43)ncnc2[nH]1` (stereo not drawn) [Compound 32], in the series on HeLa MKYP cells [1] (Table 3), the “Toxicity (% positive for DAPI takeup @ 50 μM)” value is reported as 27.1%. Also, in the series with HeLa MKYP cells [2] (setting [3]), the EC50 was > 50 µM.

In the case of `FC(F)(F)c1cc2c(NC3CCOc4ccccc43)ncnc2[nH]1` (stereo not drawn) [Compound 33], the “Toxicity (% positive for DAPI takeup @ 50 μM)” value in the series with HeLa MKYP cells [1] (Table 3) came to 22.3%. Further, the EC50 with HeLa MKYP cells [2] (setting [3]) is 3.5 µM.

As for `FC(F)(F)c1cc2c(NC3COCc4ccccc43)ncnc2[nH]1` (stereo not drawn) [Compound 34], the “Toxicity (% positive for DAPI takeup @ 50 μM)” value with HeLa MKYP cells [1] (Table 3) was 42.9%. Moreover, the EC50 in the series on HeLa MKYP cells [2] (setting [3]) is > 50 µM.

With `COc1cc(CNc2ncnc3[nH]c(C4CC4)nc23)ccn1` [Compound 35], in the series on HeLa MKYP cells [1] (Table 3), the “Toxicity (% positive for DAPI takeup @ 50 μM)” value stood at 7.1%. In the series with HeLa MKYP cells [2] (setting [3]), the EC50 is > 50 µM.

Turning to `c1ncc(CNc2ncnc3[nH]c(C4CC4)nc23)cn1` [Compound 36], the “Toxicity (% positive for DAPI takeup @ 50 μM)” value in the series on HeLa MKYP cells [1] (human) came out at 7.1%. Further, the EC50 in the series on HeLa MKYP cells [2] (setting [3]) was > 50 µM.

For the compound `FC(F)(F)c1cc2c(N[C@H]3COc4ccccc43)ncnc2[nH]1` [Compound 39], the “Toxicity (% positive for DAPI takeup @ 50 μM)” value with HeLa MKYP cells [1] (Table 3) was 22.8%. The “Toxicity (% positive for DAPI take-up at 50 μM)*” value in the series with HeLa MKYP cells [1] is recorded as 27.32%. Besides, the EC50 in the series with HeLa MKYP cells [2] (setting [3]) was determined as 1.4 µM; in the series with HeLa MKYP cells [2] (setting [4]), 1.49 µM.

Take `C[C@H](Nc1ncnc2[nH]c(C(F)(F)F)cc12)c1ccccc1` [Compound 40]: in the series on HeLa MKYP cells [1] (Table 3), the “Toxicity (% positive for DAPI takeup @ 50 μM)” value came out at 90.8%. For the same compound, the “Toxicity (% positive for DAPI take-up at 50 μM)*” value with HeLa MKYP cells [1] stood at 92.03%. Moreover, the EC50 in the series on HeLa MKYP cells [2] (setting [3]) worked out at 0.3 µM; with HeLa MKYP cells [2] (setting [4]) it was 0.02 µM.

Regarding `FC(F)(F)c1cc2c(N[C@@H]3COc4ccccc43)ncnc2[nH]1` [Compound 41], the “Toxicity (% positive for DAPI takeup @ 50 μM)” value in the series with HeLa MKYP cells [1] (Table 3) is recorded as 29.2%. For the same compound, the “Toxicity (% positive for DAPI take-up at 50 μM)*” value with HeLa MKYP cells [1] amounted to 29.25%. Also, the EC50 in the series with HeLa MKYP cells [2] (setting [3]) and in the series with HeLa MKYP cells [2] (setting [4]) was 14.9 µM in each case.

Consider `FC(F)(F)c1cc2c(N[C@H]3CCOc4ccccc43)ncnc2[nH]1` [Compound 42], for which the “Toxicity (% positive for DAPI takeup @ 50 μM)” value in the series with HeLa MKYP cells [1] (Table 3) is 37.7%. In addition, the “Toxicity (% positive for DAPI take-up at 50 μM)*” value in the series on HeLa MKYP cells [1] was found to be 37.66%. Further, the EC50 with HeLa MKYP cells [2] (setting [3]) turned out to be 5.6 µM; with HeLa MKYP cells [2] (setting [4]), 5.64 µM.

As for `FC(F)(F)c1cc2c(NC3CCCc4ncncc43)ncnc2[nH]1` (stereo not drawn) [Compound 45], the “Toxicity (% positive for DAPI takeup @ 50 μM)” value in the series with HeLa MKYP cells [1] (Table 3) is given as 12.0%. Moreover, in the series with HeLa MKYP cells [1], the “Toxicity (% positive for DAPI take-up at 50 μM)*” value is recorded as 11.97%. In addition, the values for the EC50 with HeLa MKYP cells [2] (setting [3]) and in the series with HeLa MKYP cells [2] (setting [4]) were > 50 µM and > 25 µM, respectively.

With `C[C@H](Nc1ncnc2[nH]c(C3CC3)nc12)c1ccccc1` [Compound 46], in the series on HeLa MKYP cells [1] (Table 3), the “Toxicity (% positive for DAPI takeup @ 50 μM)” value is 27.6%. For the same compound, the “Toxicity (% positive for DAPI take-up at 50 μM)*” value in the series on HeLa MKYP cells [1] is 27.61%. Also, the EC50 with HeLa MKYP cells [2] (setting [3]) was 3.2 µM; in the series on HeLa MKYP cells [2] (setting [4]), 3.17 µM.

Regarding `C[C@@H](Nc1ncnc2[nH]c(C3CC3)nc12)c1ccccc1` [Compound 47], in the series on HeLa MKYP cells [1] (Table 3), the “Toxicity (% positive for DAPI takeup @ 50 μM)” value turned out to be 12.3%. Besides, in the series with HeLa MKYP cells [1], the “Toxicity (% positive for DAPI take-up at 50 μM)*” value came to 12.33%. The figures for the EC50 with HeLa MKYP cells [2] (setting [3]) and with HeLa MKYP cells [2] (setting [4]) were > 50 µM and > 25 µM, respectively.

Consider `COc1ccccc1CNc1ncnc2[nH]c(C(F)(F)F)cc12` [Compound 48], for which the “Toxicity (% positive for DAPI takeup @ 50 μM)” value with HeLa MKYP cells [1] (Table 3) is listed as 24.7%. The EC50 with HeLa MKYP cells [2] (setting [3]) was 2 µM.

On to `FC(F)(F)c1cc2c(NCc3cncnc3)ncnc2[nH]1` [Compound 49], for which the “Toxicity (% positive for DAPI takeup @ 50 μM)” value in the series with HeLa MKYP cells [1] (human) is on record as 23.0%. Besides, the EC50 in the series with HeLa MKYP cells [2] (setting [3]) came out at 11.7 µM.

Consider `COc1ccc(CNc2ncnc3[nH]c(C(F)(F)F)cc23)c(OC)c1` [Compound 51], for which, in the series on HeLa MKYP cells [1] (Table 3), the “Toxicity (% positive for DAPI takeup @ 50 μM)” value is 42.6%. In the series with HeLa MKYP cells [2] (setting [3]), the EC50 is 2.1 µM.

Turning to `c1ccc2c(c1)OCC2Nc1ncnc2[nH]cnc12` (stereo not drawn) [Compound 53], the “Toxicity (% positive for DAPI takeup @ 50 μM)” value in the series with HeLa MKYP cells [1] (Table 3) was determined as 21.0%. In addition, in the series on HeLa MKYP cells [1], the “Toxicity (% positive for DAPI take-up at 50 μM)*” value is reported as 20.95%. Also, the EC50 was 6.1 µM in the series with HeLa MKYP cells [2] (setting [3]) and 6.11 µM with HeLa MKYP cells [2] (setting [4]).

In the case of `c1ccc2c(c1)CC[C@@H]2Nc1ncnc2[nH]cnc12` [Compound 54], in the series on HeLa MKYP cells [1] (Table 3), the “Toxicity (% positive for DAPI takeup @ 50 μM)” value came out at 16.2%. In addition, the “Toxicity (% positive for DAPI take-up at 50 μM)*” value in the series with HeLa MKYP cells [1] came to 16.16%. The EC50 in the series on HeLa MKYP cells [2] (setting [3]) came out at 4.4 µM; in the series on HeLa MKYP cells [2] (setting [4]), 4.38 µM.
